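Compound exposure: 48 hours, 5 concentrations, 96-well plates. GI50 is the concentration that inhibits growth by half.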 Calls of active or inactive are those of the source. Cut-off read from the data, not from the text of the source: active = GI50 up to about 1.1 µM and inactive = higher.
What was measured:
Assay in all cases: inhibition of tumour cell growth, NCI panel, 48 h
SN12C = tested on: SN12C
NCI-H23 = tested on: NCI-H23
SF-295 = tested on: SF-295
OVCAR-8 = tested on: OVCAR-8
NCI-H522 = tested on: NCI-H522
HCC 2998 = tested on: HCC 2998
MOLT-4 = tested on: MOLT-4
CCRF-CEM = tested on: CCRF-CEM
K562 = tested on: K562
UACC-62 = tested on: UACC-62
NCI-H226 = tested on: NCI-H226
SNB-19 = tested on: SNB-19
SNB-75 = tested on: SNB-75
LOX IMVI = tested on: LOX IMVI
SK-MEL-2 = tested on: SK-MEL-2
CAKI-1 = tested on: CAKI-1
SF-539 = tested on: SF-539
SW-620 = tested on: SW-620
NCI/ADR-RES = tested on: NCI/ADR-RES
SK-MEL-28 = tested on: SK-MEL-28

Measured: GI50

O=C(O)c1cc2c3c(c1)[C@H]1C=CC[C@H]1CN3CC1CC=CC21 (stereo partly drawn)
inactive: SN12C > 100 µM | NCI-H23 > 100 µM | SF-295 > 100 µM | OVCAR-8 > 100 µM | NCI-H522 > 100 µM | HCC 2998 > 100 µM | MOLT-4 > 100 µM | CCRF-CEM > 100 µM | K562 > 100 µM | UACC-62 > 100 µM | NCI-H226 > 100 µM | SNB-19 > 100 µM | SNB-75 > 100 µM | LOX IMVI > 100 µM | SK-MEL-2 > 100 µM | CAKI-1 > 100 µM | SF-539 > 100 µM | SW-620 > 100 µM

COC(=O)C1=C(C(=O)OC)C(N(C)C)C(C(=O)OC)=C(C(=O)OC)S1
inactive: SN12C > 100 µM | NCI-H23 > 100 µM | SF-295 > 100 µM | OVCAR-8 > 100 µM | HCC 2998 > 100 µM | MOLT-4 > 100 µM | NCI/ADR-RES > 100 µM | K562 > 100 µM | UACC-62 > 100 µM | NCI-H226 > 100 µM | SNB-19 > 100 µM | SNB-75 > 100 µM | LOX IMVI > 100 µM | SK-MEL-2 > 100 µM | CAKI-1 > 100 µM | SK-MEL-28 > 100 µM | SW-620 > 100 µM

COC(=O)c1c(-c2ccccc2)c2sc3ccccc3n2c1N
inactive: SN12C 33 µM | NCI-H23 72.1 µM | SF-295 34.1 µM | OVCAR-8 58.3 µM | NCI-H522 24.2 µM | HCC 2998 31.5 µM | NCI/ADR-RES > 100 µM | CCRF-CEM 52.4 µM | K562 > 100 µM | UACC-62 > 100 µM | NCI-H226 > 100 µM | SNB-19 74.3 µM | SNB-75 56.1 µM | LOX IMVI 17.3 µM | SK-MEL-2 32.9 µM | CAKI-1 51.3 µM | SK-MEL-28 66.1 µM | SF-539 28.1 µM

C#Cc1c(C)c(/C=C/C(C)=C\C(=O)OC)n(C)c1C
inactive: SN12C > 100 µM | NCI-H23 > 100 µM | SF-295 > 100 µM | OVCAR-8 70.1 µM | NCI-H522 50.7 µM | HCC 2998 > 100 µM | MOLT-4 7.06 µM | CCRF-CEM 33.8 µM | K562 8.97 µM | UACC-62 70.8 µM | NCI-H226 > 100 µM | SNB-19 > 100 µM | LOX IMVI > 100 µM | CAKI-1 > 100 µM | SF-539 67.5 µM | SW-620 > 100 µM

Nc1ccc2[nH]c3c(-c4ccccc4)nccc3c2c1
inactive: SN12C > 87.7 µM | NCI-H23 > 73.6 µM | SF-295 41.2 µM | OVCAR-8 72.3 µM | NCI-H522 59.2 µM | HCC 2998 28.8 µM | MOLT-4 4.46 µM | NCI/ADR-RES 24 µM | CCRF-CEM 14.1 µM | K562 24.4 µM | UACC-62 29.2 µM | NCI-H226 27.8 µM | SNB-19 > 100 µM | SNB-75 29.6 µM | LOX IMVI 28.9 µM | SK-MEL-2 > 100 µM | SK-MEL-28 > 100 µM | SF-539 71.6 µM | SW-620 65.8 µM

Cc1sc(N)c(S(=O)(=O)c2ccccc2)c1C
inactive: SN12C > 100 µM | NCI-H23 > 100 µM | SF-295 > 100 µM | OVCAR-8 > 100 µM | NCI-H522 > 100 µM | HCC 2998 > 100 µM | MOLT-4 > 100 µM | NCI/ADR-RES > 100 µM | CCRF-CEM > 100 µM | K562 > 100 µM | UACC-62 > 100 µM | NCI-H226 > 100 µM | SNB-19 > 100 µM | SNB-75 > 100 µM | SK-MEL-2 > 100 µM | CAKI-1 > 100 µM | SK-MEL-28 > 100 µM | SF-539 5.13 µM | SW-620 > 100 µM

CN(C)CCCCN1CCc2c(n(C)c3ccccc23)C1=O
inactive: SN12C 42 µM | NCI-H23 54.2 µM | SF-295 25.9 µM | OVCAR-8 > 80.4 µM | NCI-H522 33.3 µM | MOLT-4 50.6 µM | NCI/ADR-RES > 67.8 µM | CCRF-CEM 63.2 µM | K562 26.2 µM | UACC-62 17.3 µM | NCI-H226 > 59.7 µM | SNB-19 > 74 µM | SNB-75 22.3 µM | LOX IMVI 19.4 µM | SK-MEL-2 20 µM | CAKI-1 29.6 µM | SK-MEL-28 16.7 µM | SW-620 27.4 µM

O=C(CCC(=O)Nc1ccccc1C(F)(F)F)N/N=C1\C(=N\NC(=O)CCC(=O)Nc2ccccc2C(F)(F)F)C(c2ccc3c(c2)OCO3)Oc2ccccc21 (stereo not drawn)
inactive: SN12C 6.46 µM | NCI-H23 22.8 µM | SF-295 8.32 µM | OVCAR-8 7.87 µM | NCI-H522 4.74 µM | HCC 2998 > 100 µM | MOLT-4 3.01 µM | CCRF-CEM 4.26 µM | K562 3.54 µM | UACC-62 5.46 µM | NCI-H226 10.6 µM | SNB-19 13.2 µM | SNB-75 10 µM | LOX IMVI 6.28 µM | SK-MEL-2 > 31.9 µM | CAKI-1 10.1 µM | SK-MEL-28 > 100 µM | SF-539 12 µM | SW-620 6.22 µM

O=C(Nc1cccc(C(F)(F)F)c1)C(=O)C(C(=O)c1ccc(Cl)c(Cl)c1)C1OC(=O)c2ccccc21 (stereo not drawn)
inactive: SN12C 36.6 µM | NCI-H23 27.4 µM | OVCAR-8 26.5 µM | NCI-H522 28.8 µM | HCC 2998 28.5 µM | MOLT-4 48.9 µM | CCRF-CEM 28.4 µM | K562 44 µM | UACC-62 28.6 µM | NCI-H226 19.9 µM | SNB-19 37.8 µM | SNB-75 22.7 µM | LOX IMVI 27.3 µM | CAKI-1 88.1 µM | SW-620 38.1 µM

COc1ccc2c(c1)/C(=C/CCN(C)C)c1ccccc1S2
inactive: SN12C > 100 µM | NCI-H23 > 100 µM | SF-295 > 100 µM | OVCAR-8 > 100 µM | HCC 2998 44.3 µM | MOLT-4 67.1 µM | NCI/ADR-RES > 100 µM | CCRF-CEM 54.6 µM | K562 46.1 µM | NCI-H226 > 100 µM | SNB-19 > 100 µM | SNB-75 27.5 µM | LOX IMVI 95.5 µM | SK-MEL-28 19.4 µM | SW-620 > 100 µM

COc1ccc(C23C(=O)c4ccccc4N2O[C@H]2C(=O)N(c4ccccc4)C(=O)[C@H]23)cc1 (stereo partly drawn)
inactive: SN12C > 100 µM | NCI-H23 > 100 µM | SF-295 > 100 µM | OVCAR-8 > 100 µM | NCI-H522 14 µM | HCC 2998 > 100 µM | MOLT-4 > 100 µM | CCRF-CEM > 100 µM | K562 > 100 µM | UACC-62 > 100 µM | NCI-H226 > 100 µM | SNB-19 > 100 µM | SNB-75 > 100 µM | LOX IMVI > 100 µM | SK-MEL-2 > 100 µM | CAKI-1 > 100 µM | SK-MEL-28 > 100 µM | SF-539 > 100 µM | SW-620 > 100 µM

O=C(O)c1nc2ccc(C(F)(F)F)cc2[nH]c1=O
inactive: SN12C > 100 µM | NCI-H23 > 100 µM | SF-295 > 100 µM | OVCAR-8 > 100 µM | NCI-H522 > 100 µM | HCC 2998 > 100 µM | MOLT-4 > 100 µM | NCI/ADR-RES > 100 µM | CCRF-CEM > 100 µM | K562 > 100 µM | UACC-62 > 100 µM | NCI-H226 > 100 µM | SNB-19 > 100 µM | LOX IMVI > 100 µM | SK-MEL-2 > 100 µM | CAKI-1 > 100 µM | SK-MEL-28 > 100 µM | SF-539 > 100 µM | SW-620 > 100 µM

CCOC(=O)/C(=N/Nc1ccc(Cl)cc1)N1C(=S)N(C)N=C(C)C=C1S
inactive: SN12C 29.6 µM | NCI-H23 39 µM | SF-295 20.5 µM | OVCAR-8 23.7 µM | NCI-H522 22.1 µM | HCC 2998 > 100 µM | MOLT-4 > 100 µM | NCI/ADR-RES 42.9 µM | CCRF-CEM > 100 µM | K562 > 100 µM | UACC-62 34.6 µM | SNB-19 34.6 µM | SNB-75 24.2 µM | SK-MEL-2 57.7 µM | CAKI-1 54.5 µM | SK-MEL-28 > 100 µM | SF-539 57.1 µM | SW-620 > 100 µM

CCCCCCCCCCC(C)CCCCCCC(=O)O (stereo not drawn)
inactive: SN12C > 100 µM | NCI-H23 > 100 µM | SF-295 > 100 µM | OVCAR-8 > 100 µM | NCI-H522 > 100 µM | HCC 2998 > 100 µM | MOLT-4 > 100 µM | CCRF-CEM > 100 µM | K562 > 100 µM | UACC-62 > 100 µM | NCI-H226 > 100 µM | SNB-19 > 100 µM | SNB-75 > 100 µM | LOX IMVI > 100 µM | SK-MEL-2 > 100 µM | CAKI-1 > 100 µM | SK-MEL-28 > 100 µM | SF-539 > 100 µM | SW-620 > 100 µM

O=c1cc(N2CCCC2)[nH]c(=O)n1-c1cccc(C(F)(F)F)c1
inactive: SN12C > 100 µM | NCI-H23 > 100 µM | SF-295 > 100 µM | OVCAR-8 > 100 µM | NCI-H522 > 100 µM | HCC 2998 > 100 µM | MOLT-4 > 100 µM | NCI/ADR-RES > 100 µM | CCRF-CEM > 100 µM | K562 > 100 µM | UACC-62 > 100 µM | NCI-H226 > 100 µM | SNB-19 > 100 µM | SNB-75 > 100 µM | LOX IMVI > 100 µM | SK-MEL-2 > 100 µM | CAKI-1 > 100 µM | SF-539 > 100 µM | SW-620 > 100 µM
